The values that follow come from ChEMBL document CHEMBL4414645, “Development of Robust 17(R),18(S)-Epoxyeicosatetraenoic Acid (17,18-EEQ) Analogues as Potential Clinical Antiarrhythmic Agents” (J Med Chem, 2019).

Molecules are shown by their SMILES.

Series [1] in a line: Efflux ratio of apparent permeability across basolateral to apical side over apical to basolateral side in human Caco2 cells at 10 uM after 15 to 90 mins by LC-ESI-MS/MS analysis. Format: ADME, cell-based. The note with it: Caco-2. Background: Caco-2 monolayers are a common model of the intestinal barrier.
A short description of series [2]: Intrinsic clearance in human hepatocytes assessed per million cells at 1 uM measured up to 180 mins by LC-ESI-MS/MS analysis. In kind it is ADME, cell-based, Hepatocyte. As to conditions: read-out: CLH; call rule not given here.
Series [3] can be described thus: Negative chronotropic activity in Wistar rat neonatal cardiomyocytes assessed as changes to basal beating rate after 7 mins by inverted microscopic method. Format: functional.
For another series, the target named is T1, Cytochrome P450 2J2 (Homo sapiens, UniProt P51589).
T1 sequence (P51589 whole entry): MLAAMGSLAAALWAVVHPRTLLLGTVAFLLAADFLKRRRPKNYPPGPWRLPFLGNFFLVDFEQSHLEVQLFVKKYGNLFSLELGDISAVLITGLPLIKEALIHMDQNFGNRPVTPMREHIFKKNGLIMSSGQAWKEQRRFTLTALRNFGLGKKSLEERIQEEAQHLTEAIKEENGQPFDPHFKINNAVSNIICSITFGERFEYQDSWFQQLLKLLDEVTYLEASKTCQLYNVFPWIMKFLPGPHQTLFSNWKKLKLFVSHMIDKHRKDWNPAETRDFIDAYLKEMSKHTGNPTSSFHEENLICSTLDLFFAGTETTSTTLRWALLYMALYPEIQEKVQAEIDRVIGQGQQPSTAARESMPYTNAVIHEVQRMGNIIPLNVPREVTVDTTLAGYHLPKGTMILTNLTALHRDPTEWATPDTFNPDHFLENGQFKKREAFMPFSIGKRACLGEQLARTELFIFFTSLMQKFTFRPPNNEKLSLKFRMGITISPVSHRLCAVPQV
Nature of the series: Inhibition of recombinant human CYP2J2 expressed in baculovirus infected insect cells co-expressing NADPH-CYP reductase and cytochrome b5 assessed as reduction in CYP2J2-mediated EPA epoxidation by measuring sum of EEQ and DiHETEs level at 1 to 50 uM using EPA as substrate preincubated for 5 mins followed by NADPH addition and measured after 15 mins by LCMS/MS analysis. The note with it: recombinant enzyme, 0.25 h. Format: ADME.

The nature of series [4]: Stability of compound in HEPES buffer assessed as parent compound remaining at 1 uM after 180 mins by LC-ESI-MS/MS analysis. Format: physicochemical. The note with it: read-out: Stability.
Another series addresses T2, Cytochrome P450 2B6 (Homo sapiens, UniProt P20813).
T2 sequence (P20813 whole entry): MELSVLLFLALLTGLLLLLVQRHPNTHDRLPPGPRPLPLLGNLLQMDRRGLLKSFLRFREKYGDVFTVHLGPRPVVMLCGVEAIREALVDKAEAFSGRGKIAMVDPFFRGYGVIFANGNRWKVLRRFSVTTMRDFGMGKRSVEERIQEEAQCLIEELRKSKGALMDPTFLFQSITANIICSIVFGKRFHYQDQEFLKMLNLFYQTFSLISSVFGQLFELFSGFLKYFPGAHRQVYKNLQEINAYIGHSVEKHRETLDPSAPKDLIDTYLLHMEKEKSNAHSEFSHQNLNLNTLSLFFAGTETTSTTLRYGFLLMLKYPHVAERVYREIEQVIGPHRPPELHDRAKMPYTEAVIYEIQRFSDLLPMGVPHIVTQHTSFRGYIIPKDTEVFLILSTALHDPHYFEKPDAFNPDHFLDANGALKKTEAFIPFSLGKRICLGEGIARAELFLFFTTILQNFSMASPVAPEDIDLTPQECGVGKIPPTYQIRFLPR
Description: Inhibition of human CYP2B6 by fluorescence method. In kind it is ADME.

Series [5] is described as follows: Tmax in Sprague-Dawley (RjHan:SD) rat at 3 mg/kg, po administered via gavage by LC-MS analysis. In kind it is ADME, organism-based. The note with it: in vivo.
Series [6] can be described thus: Protein binding in human plasma at 10 uM incubated for 60 mins by LC-ESI-MS/MS analysis. In kind it is ADME, cell-free. As to conditions: read-out: PPB (converted).
A short description of series [7]: Half life in human hepatocytes at 1 uM measured up to 180 mins by LC-ESI-MS/MS analysis. Format: ADME, cell-based, Hepatocyte.
Series [8] is described as follows: Apparent permeability across apical to basolateral side in human Caco2 cells at 10 uM after 15 to 90 mins by LC-ESI-MS/MS analysis. Format: ADME, cell-based. The note with it: Caco-2.
In a further series the target is Cytochrome P450 2C9 (Homo sapiens, UniProt P11712). Description: Inhibition of human CYP2C9 by fluorescence method. Format: ADME.
Series [9] deals with T3, Epoxide hydrolase 1/Bifunctional epoxide hydrolase 2 (Homo sapiens, UniProt P07099+P34913).
T3 sequence (P07099 whole entry): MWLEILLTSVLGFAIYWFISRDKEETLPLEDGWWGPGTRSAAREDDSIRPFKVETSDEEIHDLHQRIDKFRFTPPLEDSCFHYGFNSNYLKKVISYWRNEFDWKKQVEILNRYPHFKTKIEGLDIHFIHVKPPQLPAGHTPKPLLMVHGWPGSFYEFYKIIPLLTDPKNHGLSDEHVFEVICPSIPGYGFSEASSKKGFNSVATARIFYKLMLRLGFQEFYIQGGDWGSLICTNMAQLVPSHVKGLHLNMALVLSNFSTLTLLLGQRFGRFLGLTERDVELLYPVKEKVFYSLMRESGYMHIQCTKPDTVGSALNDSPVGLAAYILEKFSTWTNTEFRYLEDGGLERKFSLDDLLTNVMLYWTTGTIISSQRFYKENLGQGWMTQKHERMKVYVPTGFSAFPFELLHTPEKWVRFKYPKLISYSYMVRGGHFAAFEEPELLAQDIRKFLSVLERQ
T3 sequence (P34913 whole entry): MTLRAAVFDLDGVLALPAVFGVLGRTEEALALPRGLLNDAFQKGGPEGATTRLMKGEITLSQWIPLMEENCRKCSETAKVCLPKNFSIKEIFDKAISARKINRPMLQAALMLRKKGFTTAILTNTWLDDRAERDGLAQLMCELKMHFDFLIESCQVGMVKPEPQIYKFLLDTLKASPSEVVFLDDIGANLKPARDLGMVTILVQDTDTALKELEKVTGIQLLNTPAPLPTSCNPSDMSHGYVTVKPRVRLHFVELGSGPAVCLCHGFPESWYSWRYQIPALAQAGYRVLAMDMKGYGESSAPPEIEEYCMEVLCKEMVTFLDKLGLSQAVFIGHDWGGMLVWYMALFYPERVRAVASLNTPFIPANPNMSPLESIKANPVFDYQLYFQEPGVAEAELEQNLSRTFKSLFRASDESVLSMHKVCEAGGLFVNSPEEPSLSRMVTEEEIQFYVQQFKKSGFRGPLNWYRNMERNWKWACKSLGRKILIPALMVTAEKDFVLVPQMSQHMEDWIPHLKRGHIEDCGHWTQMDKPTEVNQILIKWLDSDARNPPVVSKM
Description: Drug metabolism in human liver microsomes assessed as microsomal/soluble epoxide hydrolase mediated formation of [+O + H2O] metabolites at 1 uM after 60 mins in absence of NADPH by LC-MS analysis. In kind it is ADME. The note with it: 1 h. (Liver microsomes are vesicles of endoplasmic reticulum, rich in cytochrome P450 enzymes.)

For the next series, the target named is Cytochrome P450 2D6 (Homo sapiens, UniProt P10635). Description: Inhibition of human CYP2D6 by fluorescence method. Format: ADME.
In a further series the target is Cytochrome P450 2C19 (Homo sapiens, UniProt P33261). Description: Inhibition of human CYP2C19 by fluorescence method. Format: ADME.
Sequence of Cytochrome P450 2C19 (P33261 whole entry): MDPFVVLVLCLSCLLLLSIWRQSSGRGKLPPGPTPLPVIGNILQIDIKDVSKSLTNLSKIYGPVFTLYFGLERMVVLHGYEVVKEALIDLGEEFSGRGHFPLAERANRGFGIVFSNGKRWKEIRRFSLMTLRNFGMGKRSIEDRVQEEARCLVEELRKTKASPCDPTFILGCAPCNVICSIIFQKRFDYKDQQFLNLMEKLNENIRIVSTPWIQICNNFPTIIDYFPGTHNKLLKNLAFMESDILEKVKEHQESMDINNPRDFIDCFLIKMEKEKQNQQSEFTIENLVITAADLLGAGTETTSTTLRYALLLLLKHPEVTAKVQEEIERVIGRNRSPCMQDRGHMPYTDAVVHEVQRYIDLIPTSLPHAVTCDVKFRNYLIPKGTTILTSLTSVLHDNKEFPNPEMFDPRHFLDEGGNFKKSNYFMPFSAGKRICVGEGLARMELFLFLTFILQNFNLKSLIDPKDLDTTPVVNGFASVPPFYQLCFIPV

Sequence of Cytochrome P450 2D6 (P10635 whole entry): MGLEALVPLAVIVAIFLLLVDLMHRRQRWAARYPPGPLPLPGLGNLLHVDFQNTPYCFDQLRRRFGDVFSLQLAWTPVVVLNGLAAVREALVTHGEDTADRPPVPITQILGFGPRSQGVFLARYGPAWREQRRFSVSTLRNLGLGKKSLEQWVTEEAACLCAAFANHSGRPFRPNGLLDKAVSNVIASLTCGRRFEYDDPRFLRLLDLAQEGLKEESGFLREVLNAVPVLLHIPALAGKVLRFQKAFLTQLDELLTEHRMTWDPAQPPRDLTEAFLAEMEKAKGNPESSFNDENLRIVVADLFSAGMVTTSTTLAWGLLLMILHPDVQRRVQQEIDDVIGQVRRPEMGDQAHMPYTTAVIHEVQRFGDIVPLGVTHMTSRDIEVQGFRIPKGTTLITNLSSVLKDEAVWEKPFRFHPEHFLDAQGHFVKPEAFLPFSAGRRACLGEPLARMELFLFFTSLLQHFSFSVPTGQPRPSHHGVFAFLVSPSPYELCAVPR
Sequence of Cytochrome P450 2C9 (P11712 whole entry): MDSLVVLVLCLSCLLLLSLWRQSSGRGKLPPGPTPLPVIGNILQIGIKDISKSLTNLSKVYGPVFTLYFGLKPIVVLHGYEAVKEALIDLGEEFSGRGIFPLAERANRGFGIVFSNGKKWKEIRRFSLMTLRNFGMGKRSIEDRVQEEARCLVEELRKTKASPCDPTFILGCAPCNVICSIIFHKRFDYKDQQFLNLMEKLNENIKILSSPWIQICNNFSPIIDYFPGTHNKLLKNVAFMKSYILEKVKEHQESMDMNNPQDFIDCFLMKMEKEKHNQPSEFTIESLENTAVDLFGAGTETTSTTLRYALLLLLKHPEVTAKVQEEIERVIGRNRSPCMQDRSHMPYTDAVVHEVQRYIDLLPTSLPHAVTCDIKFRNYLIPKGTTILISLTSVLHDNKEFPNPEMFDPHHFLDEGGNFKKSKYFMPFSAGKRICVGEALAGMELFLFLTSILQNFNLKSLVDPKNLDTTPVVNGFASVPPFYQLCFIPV

As for `CNC(=O)C(=O)NCCCC/C=C\CCCCCCCCCC(=O)O`, the efflux ratio – broadly, a quotient of directional permeabilities that is used to spot active efflux – at 10 µM in [1] stood at 0.4. Also, in series [2], the hepatocyte CLint at 1 µM is 16.5 µL/min/1e6 cells. Moreover, the Emax in series [3] is listed as 38.2 bpm. Also, the “inhibition (INH)” value at Cytochrome P450 2J2 is given as “Not Active”. Further, in [4], the remaining at 3 h, 1 µM came to 85.3%. For the same compound, the IC50 against Cytochrome P450 2B6, against Cytochrome P450 2C9, on Cytochrome P450 2D6 and against Cytochrome P450 2C19 was above 50 µM in each case. The Tmax (usually the time from dosing to the highest level) in series [5] worked out at 1.6 h. In addition, the fraction unbound at 1 h, 10 µM in [6] is 0.0009. The half-life (commonly how long it takes for the measured level to halve) at 1 µM in [7] worked out at 0.874 h. Besides, the Papp A→B (commonly the apparent permeability from the apical to the basolateral side of a cell layer) at 10 µM in series [8] was 5.3 ×10⁻⁶ cm/s. Besides, the Drug metabolism entry in series [9] was “Metabolite_Notdetected”.
For the compound `CNC(=O)C(=O)NCCCC/C=C\CCCCCCCOCC(=O)O`, the efflux ratio at 10 µM in [1] was found to be 0.6. Also, the hepatocyte CLint at 1 µM in [2] was 2.48 µL/min/1e6 cells. The Emax in series [3] is 36.7 bpm. The “inhibition (INH)” value at Cytochrome P450 2J2 is reported as “Not Active”. Also, the remaining at 3 h, 1 µM in series [4] came to 102%. Further, the IC50 (in general, the point on the concentration scale where inhibition reaches its midpoint) is above 50 µM at Cytochrome P450 2B6, above 50 µM at Cytochrome P450 2C9, above 50 µM on Cytochrome P450 2D6 and 46.2 µM against Cytochrome P450 2C19. In addition, the Tmax in series [5] was 1.6 h. Also, the fraction unbound at 1 h, 10 µM in series [6] is 0.0063. The half-life at 1 µM in series [7] is 5.83 h. Besides, the Papp A→B at 10 µM in series [8] turned out to be 28.2 ×10⁻⁶ cm/s. For the same compound, the Drug metabolism entry in series [9] is given as “Metabolite_Notdetected”.
Turning to `CNC(=O)C(=O)NCCCC/C=C\CCCCCCCCCc1nnn[nH]1`, in series [1], the efflux ratio at 10 µM turned out to be 0.8. Also, the hepatocyte CLint at 1 µM in [2] was found to be 4.77 µL/min/1e6 cells. The Emax in [3] came out at 37.1 bpm. Besides, the “inhibition (INH)” value on Cytochrome P450 2J2 is recorded as “Active”. Further, the remaining at 3 h, 1 µM in [4] stood at 104%. The IC50 is above 50 µM against Cytochrome P450 2B6, 5.4 µM against Cytochrome P450 2C9, 43.2 µM at Cytochrome P450 2D6 and 0.21 µM against Cytochrome P450 2C19. Also, the Tmax in series [5] amounted to 2 h. Also, in [6], the fraction unbound at 1 h, 10 µM was 0.0003. For the same compound, the half-life at 1 µM in series [7] amounted to 3.02 h. For the same compound, the Papp A→B at 10 µM in series [8] came to 10 ×10⁻⁶ cm/s. For the same compound, in series [9], the Drug metabolism result was “Metabolite_Notdetected”.
